Assay results as given in article PMC11246588, “New 1,2,4-oxadiazole derivatives as potential multifunctional agents for the treatment of Alzheimer’s disease: design, synthesis, and biological evaluation” (BMC Chemistry, 2024).
Counter-ions that a name gives are not always drawn. Like-named read-outs stand apart in the source and are kept apart here.

How the values were obtained:
MAO-B = biological target: T1, MAO-B (Homo sapiens, UniProt P27338); assay: MAO-B inhibitory assay; assay type: biochemical
T1 construct: purchased Sigma M7441
T1 sequence (P27338 1-520): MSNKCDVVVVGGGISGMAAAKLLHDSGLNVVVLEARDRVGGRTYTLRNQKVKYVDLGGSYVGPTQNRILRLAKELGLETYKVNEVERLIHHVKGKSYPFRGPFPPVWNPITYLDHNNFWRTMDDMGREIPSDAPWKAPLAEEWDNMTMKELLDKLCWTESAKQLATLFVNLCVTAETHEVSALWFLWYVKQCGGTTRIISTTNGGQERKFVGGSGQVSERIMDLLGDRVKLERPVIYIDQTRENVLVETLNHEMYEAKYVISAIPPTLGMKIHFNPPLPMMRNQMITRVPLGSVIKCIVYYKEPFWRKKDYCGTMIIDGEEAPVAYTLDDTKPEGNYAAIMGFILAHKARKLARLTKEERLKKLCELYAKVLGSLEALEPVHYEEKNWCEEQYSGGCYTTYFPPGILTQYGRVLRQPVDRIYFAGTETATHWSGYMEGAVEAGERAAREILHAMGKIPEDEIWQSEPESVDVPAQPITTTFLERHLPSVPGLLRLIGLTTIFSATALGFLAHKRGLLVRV

AChE [1] = biological target: T2, AChE (Homo sapiens, UniProt P22303); assay: AChE inhibitory assay (Ellman-type, brain homogenate supernatant); assay type: biochemical; settings: for AChE-IC50 (µM ± SD) / IC50: means of three replicates, N.A. means no activity; for IC50: read-out: AChE-IC50 (µM ± SD); for AChE Selectivity Index: IC50 of BuChE/ IC50 of AChE
T2 construct: from tissue; host or cells: brain homogenate supernatant
T2 sequence (P22303 32-614): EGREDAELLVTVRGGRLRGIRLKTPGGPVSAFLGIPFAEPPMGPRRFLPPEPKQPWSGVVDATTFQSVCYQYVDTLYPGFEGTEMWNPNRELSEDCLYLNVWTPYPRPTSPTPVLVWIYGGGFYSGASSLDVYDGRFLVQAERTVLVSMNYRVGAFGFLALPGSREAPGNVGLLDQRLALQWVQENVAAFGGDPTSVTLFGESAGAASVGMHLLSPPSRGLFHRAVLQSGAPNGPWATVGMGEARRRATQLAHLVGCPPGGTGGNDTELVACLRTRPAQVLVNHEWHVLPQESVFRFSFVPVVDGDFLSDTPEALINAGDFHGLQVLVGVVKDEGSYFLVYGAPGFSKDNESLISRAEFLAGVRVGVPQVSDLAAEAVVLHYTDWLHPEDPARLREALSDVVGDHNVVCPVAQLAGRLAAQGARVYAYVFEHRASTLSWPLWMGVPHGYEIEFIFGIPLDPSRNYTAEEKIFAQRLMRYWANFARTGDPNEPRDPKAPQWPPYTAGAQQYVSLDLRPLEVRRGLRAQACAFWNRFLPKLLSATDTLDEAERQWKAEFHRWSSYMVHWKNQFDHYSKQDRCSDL
Method: The results, which are shown in Table 1, are graphically represented in Figs. 2 and 3. […]
3.1. AChE and BuChE inhibitory assays
In ELISA plate (Bio Tec. USA), 150 μL of phosphate buffer was directly added in ELISA blank well and 130 μL of phosphate buffer was added in ELISA activity wells. To the blank and activity wells, 5 μL of substrate ACTI was added, then 20 μL brain homogenate supernatant was added in activity ELISA wells only. The plate was preincubated for 15 min at 37 °C before the addition of the second substrate (DTNB). DTNB (60 μL) was added in both the blank and activity wells. Absorbance was […]
Values obtained were analyzed and blank reading was subtracted from sample readings. The AChE and BuChE inhibition activity of tested compound was expressed as IC 50. IC50 value is the inhibitory concentration at which 50% of AChE or BuChE is repressed. […]
sample concentration using linear regression equations.

MAO-A = biological target: T3, MAO-A (Homo sapiens, UniProt P21397); assay: biochemical
T3 sequence (P21397 1-527): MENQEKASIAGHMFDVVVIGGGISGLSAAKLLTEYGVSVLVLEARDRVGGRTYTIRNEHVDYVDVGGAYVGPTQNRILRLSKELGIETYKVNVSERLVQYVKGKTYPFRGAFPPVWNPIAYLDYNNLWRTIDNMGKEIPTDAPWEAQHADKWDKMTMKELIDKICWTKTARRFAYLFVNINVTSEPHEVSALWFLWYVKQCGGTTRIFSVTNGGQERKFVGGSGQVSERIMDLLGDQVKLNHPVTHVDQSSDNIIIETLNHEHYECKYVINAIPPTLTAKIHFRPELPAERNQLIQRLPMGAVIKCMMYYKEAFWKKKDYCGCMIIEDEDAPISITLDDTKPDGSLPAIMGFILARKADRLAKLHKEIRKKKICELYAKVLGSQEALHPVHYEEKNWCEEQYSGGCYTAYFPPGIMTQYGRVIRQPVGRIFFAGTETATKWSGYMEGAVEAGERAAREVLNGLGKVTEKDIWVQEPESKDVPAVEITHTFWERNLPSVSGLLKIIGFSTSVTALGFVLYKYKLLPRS
Method: The MAO-B and MAO-A inhibitory potentials of all the synthesized 1,2,4-oxadiazole-based derivatives were evaluated. Biperiden and methylene blue (methylthioninium chloride) were used as the reference standards.
In test tube, 150 µL of 20 nM of MAO-A or MAO-B (M7441, Sigma), 150 µL of tested compound serial dilutions (0, 0.1,
0.25, 0.5,1 and 2 mg/mL), 133 µL potassium phosphate buffer and 667 µL of or benzylamine (5µM) were mixed well.
absorbance was measured at 250 nm against air after 30 s and 90 s. The Inhibition percentage was calculated.
inhibitory concentration at which 50% of MAO -A or MAO-B is repressed.

[2] = system: human red blood cells (HRBCs); assay: Anti-hemolytic effect (hypotonic solution-induced human erythrocyte hemolysis); assay type: cell-based; settings: read-out: Hemolysis-IC50 (µM ± SD)
Method: The inhibition of human red blood cells (HRBCs) membrane lysis under […] conditions was taken as a measure of the mechanism of anti-hemolytic activity of the synthesized 1,2,4-oxadiazole-based derivatives. […]
The test carried out triplicate. […]
It was calculated by interpolation from the graph of inhibition percentage against sample concentration using linear regression equations.
The Inhibition percentage was calculated. IC50 value is the […]
centrifugation each time for 10 min at 3000 ×g. […]
solution-induced human erythrocyte hemolysis. […]
consisted of 0.5 mL of RBCs mixed with hypotonic-buffered saline solution alone. The mixtures were incubated for 10 min at room temperature and centrifuged for 10 min at 3000 ×g and the absorbance of the supernatant was measured at 540 nm using optima spectrophotometer. The test carried out triplicate. Inhibition of hemolysis percentages were calculated. Inhibition of hemolysis activity was expressed as IC50.

[3] = DPPH radical scavenging activity; settings: means of three replicates; N.A. means no activity; read-out: DPPH-IC50 (µM ± SD)
AChE [4] = biological target: T2, AChE; design: method as in PMID 18550375, PMID 33017743, PMID 36223681, PMID 34752955, PMID 26077890; settings: Fig. 1; ref [50]–[55]; cited from earlier work
[5] = design: method as in PMID 18550375, PMID 33017743, PMID 36223681, PMID 34752955, PMID 26077890; settings: Fig. 1; ref [50]–[55]; read-out: Anti-neuroinflammatory potency (IC50); cited from earlier work
GSK-3β = system: GSK-3β; design: method as in PMID 18550375, PMID 33017743, PMID 36223681, PMID 34752955, PMID 26077890; settings: Fig. 1; ref [50]–[55]; cited from earlier work
[6] = inhibition of induced HRBC membrane lysis, means of three replicates

Structure (SMILES) | IC50 (MAO-A) | IC50 [2, 6] | IC50 [3] | IC50 (MAO-B) | IC50 (AChE [1]) | AChE Selectivity Index (AChE [1]) | other results
OC(CCN1CCCCC1)(c1ccccc1)C1CC2C=CC1C2 (centres unmarked) [Biperiden HCl, reference compound] |  |  |  |  |  |  | IC50 (MAO-B; means of three replicates, N.A. means no activity, read-out: MAO-B-IC50 (µM ± SD)): 238 ± 16.3 µM
NNC(=O)COc1ccccc1-c1nc(-c2ccccc2)no1 [Compound 1a] | 47.2 ± 8.1 µM | 1620 ± 57.8 µM | 1220 ± 51.3 µM | 359 ± 23.4 µM |  |  | AChE-IC50 (µM ± SD) (AChE [1]): nonexistent efficacy
NNC(=O)COc1ccccc1-c1nc(Cc2ccccc2)no1 [Compound 1b] | 82.5 ± 8.7 µM | 1190 ± 78.3 µM | 1280 ± 42.8 µM | 535 ± 41.5 µM | 0.031 ± 0.0024 µM |  | 
NNC(=O)COc1ccccc1-c1nc(-c2ccc(C(F)(F)F)cc2)no1 [Compound 1c] | 147 ± 16.9 µM | 657 ± 33.1 µM | 735 ± 12.8 µM | 397 ± 19.6 µM |  |  | AChE-IC50 (µM ± SD) (AChE [1]): nonexistent efficacy
O=C(COc1ccccc1-c1nc(-c2ccccc2)no1)N/N=C\c1ccccc1[N+](=O)[O-] [Compound 2a, (E/Z)-N’-(2-Nitrobenzylidene)-2-(2-(3-phenyl-1,2,4-oxadiazol-5-yl)phenoxy)acetohydrazide] |  | 1790 ± 63.1 µM | 1310 ± 31.5 µM |  | 0.0339 ± 0.0029 µM |  | 
O=C(COc1ccccc1-c1nc(Cc2ccccc2)no1)N/N=C\c1ccccc1[N+](=O)[O-] [Compound 2b, (E/Z)-2-(2-(3-Benzyl-1,2,4-oxadiazol-5-yl)phenoxy)-N’-(2-nitrobenzylidene)acetohydrazide] | 204 ± 17.9 µM | 4100 ± 114 µM | 991 ± 11.4 µM | 346 ± 14.3 µM | 0.00098 ± 1e-06 µM | 36,571 | 
O=C(COc1ccccc1-c1nc(-c2ccc(C(F)(F)F)cc2)no1)N/N=C\c1ccccc1[N+](=O)[O-] [Compound 2c, (E/Z)-N’-(2-Nitrobenzylidene)-2-(2-(3-(4-(trifluoromethyl)phenyl)-1,2,4-oxadiazol-5-yl)phenoxy) acetohydrazide] |  | 4340 ± 126 µM | 464 ± 31.5 µM | 266 ± 13.4 µM | 0.0127 ± 0.00102 µM | 3,100 | 
O=C(COc1ccccc1-c1nc(-c2ccccc2)no1)N/N=C\c1cnn(-c2ccccc2)n1 [Compound 3a, (E/Z)-2-(2-(3-Phenyl-1,2,4-oxadiazol-5-yl)phenoxy)-N’-((2-phenyl-2 H-1,2,3-triazol-4-yl)methylene) acetohydrazide] | 85.2 ± 5.9 µM | 622 ± 23.4 µM |  |  |  |  | AChE-IC50 (µM ± SD) (AChE [1]): nonexistent efficacy
O=C(COc1ccccc1-c1nc(Cc2ccccc2)no1)N/N=C\c1cnn(-c2ccccc2)n1 [Compound 3b, (E/Z)-2-(2-(3-Benzyl-1,2,4-oxadiazol-5-yl)phenoxy)-N’-((2-phenyl-2 H-1,2,3-triazol-4-yl)methylene) acetohydrazide] |  | 457 ± 19.6 µM | 537 ± 19.3 µM | 140 ± 8.7 µM | 0.0233 ± 0.00069 µM | 735 | 
O=C(COc1ccccc1-c1nc(-c2ccc(C(F)(F)F)cc2)no1)N/N=C\c1cnn(-c2ccccc2)n1 [Compound 3c, (E/Z)-N’-((2-Phenyl-2 H-1,2,3-triazol-4-yl)methylene)-2-(2-(3-(4-(trifluoromethyl)phenyl)-1,2,4-oxadiazol-5-yl)phenoxy)acetohydrazide] | 115 ± 19.5 µM | 661 ± 23.8 µM | 582 ± 42.9 µM |  |  |  | AChE-IC50 (µM ± SD) (AChE [1]): nonexistent efficacy
O=C(COc1ccccc1-c1nc(-c2ccccc2)no1)NN1C(=O)c2ccccc2C1=O [Compound 4a, N-(1,3-Dioxoisoindolin-2-yl)-2-(2-(3-phenyl-1,2,4-oxadiazol-5-yl)phenoxy)acetamide] |  | 522 ± 15.9 µM | 1660 ± 62.3 µM | 394 ± 16.3 µM | 0.0328 ± 0.0011 µM | 1,010 | 
O=C(COc1ccccc1-c1nc(Cc2ccccc2)no1)NN1C(=O)c2ccccc2C1=O [Compound 4b, 2-(2-(3-Benzyl-1,2,4-oxadiazol-5-yl)phenoxy)-N-(1,3-dioxoisoindolin-2-yl)acetamide] | 130 ± 16.9 µM | 1790 ± 89.3 µM | 2661 ± 26.3 µM | 713 ± 22.3 µM | 0.0293 ± 0.0013 µM |  | 
O=C(COc1ccccc1-c1nc(-c2ccc(C(F)(F)F)cc2)no1)NN1C(=O)c2ccccc2C1=O [Compound 4c, N-(1,3-Dioxoisoindolin-2-yl)-2-(2-(3-(4-(trifluoromethyl)phenyl)-1,2,4-oxadiazol-5-yl)phenoxy)acetamide] | 144 ± 22.4 µM | 1040 ± 88.9 µM |  | 117 ± 9.8 µM | 0.0377 ± 0.0027 µM | 673 | 
O=C(COc1ccccc1-c1nc(-c2ccccc2)no1)NNC(=O)c1ccc2ccccc2n1 [Compound 5a, N’-(2-(2-(3-Phenyl-1,2,4-oxadiazol-5-yl)phenoxy)acetyl)quinoline-2-carbohydrazide] |  | 2020 ± 111 µM | 885 ± 22.9 µM | 274 ± 21.1 µM | 0.0475 ± 0.0028 µM |  | 
O=C(COc1ccccc1-c1nc(Cc2ccccc2)no1)NNC(=O)c1ccc2ccccc2n1 [Compound 5b, N’-(2-(2-(3-Benzyl-1,2,4-oxadiazol-5-yl)phenoxy)acetyl)quinoline-2-carbohydrazide] |  | 3560 ± 125 µM |  |  | 0.0337 ± 0.00089 µM | 627 | 
O=C(COc1ccccc1-c1nc(-c2ccc(C(F)(F)F)cc2)no1)NNC(=O)c1ccc2ccccc2n1 [Compound 5c, N’-(2-(2-(3-(4-(Trifluoromethyl)phenyl)-1,2,4-oxadiazol-5-yl)phenoxy)acetyl)quinoline-2-carbohydrazide] |  | 521 ± 11.9 µM | 1140 ± 68.9 µM |  | 0.0792 ± 0.0061 µM | 894 | 
O=C(O)Cc1ccccc1Nc1c(Cl)cccc1Cl [Diclofenac, reference compound] |  |  |  |  |  |  | IC50 [2]: 1120 ± 12.6 µM
Cc1cc(-c2noc(-c3ccc(OCC4CCN(Cc5cccc(F)c5)CC4)cc3)n2)ccn1 [III] |  |  |  |  |  |  | IC50 (AChE [4]): 0.07 µM
CC(C)(C)c1ccc(S(=O)(=O)Nc2ccc(-c3nc(-c4ccnc(Nc5ccccc5Cl)c4)no3)cc2)cc1 [II] |  |  |  |  |  |  | IC50 [5]: 6.94 µM; IC50 (GSK-3β): 0.19 µM
O=c1c(O)c(-c2ccc(O)c(O)c2)oc2cc(O)cc(O)c12 [Quercetin, reference compound] |  |  | 491 ± 14.8 µM |  |  |  | 
COc1ccc(-c2noc(Cn3cc(Cn4c5ccccc5c(=O)c5ccccc54)nn3)n2)cc1 [V] |  |  |  |  |  |  | IC50 (AChE [4]): 11.5 µM
